Reference: patent publication US20230201360A1, “Composition and Kit for colonization in gut of external probiotics through bioorthogonal click chemistry” (RESEARCH & BUSINESS FOUNDATION SUNGKYUNKWAN UNIVERSITY, priority 2021, published 2023)

Assays:
HT29-MTX-e12 cells [1] = experiment: Azide group expression in goblet cell-like cells, DBCO-Cy5.5 fluorescence imaging; format: cell-based; settings: 100 μM, 24 hours; DBCO-Cy5.5 labeling
Source text: (§1) In order to evaluate the introduction of an azide group (—N3) (i.e., a functional group for bioorthogonal click chemistry) to the intestinal mucosa, HT29-MTX-e12 cells, which are goblet cell-like cells in vitro, were used. An azide group was introduced to the cell surface through glycan manipulation using tetraacetylated N-azidoacetyl-D-mannosamine (ManNAz) and tetraacetylated N-azidoacetyl-D-galactosamine (GalNAz), which are derivatives of mannosamine and galactosamine, which is a molecule used for mucosal formation. Specifically, HT29-MTX-e12 cells were cultured for 24 hours in DMEM medium containing 100 μM ManNAz or GalNAz. The azide group introduced was subjected to fluorescent labeling by culturing for 30 minutes in a medium containing 10 μM DBCO-Cy5.5, washed twice with physiological saline at 4° C., reacted with 20 μM Hoechst 33342 for 15 minutes, and then the cell nuclei were stained and observed.
In the case of introduction of an azide group into the intestinal mucosa, after introduction of an azide group into the HT29-MTX-e12 goblet cell-like cell line by the method of Example 2, the binding ability with DBCO-Cy5.5 was evaluated.

HT29-MTX-e12 cells [2] = experiment: Western blot analysis of azide group introduced into goblet cell-like cells; format: cell-based; settings: various concentrations, 24 hours
Experimental: For quantitative evaluation of an azide group according to the precursor treatment concentration, HT29-MTX-e12 cells in 10 mL medium without sugar or containing various concentrations of GalNAz or ManNAz were inoculated onto 60 mm×15 mm polystyrene tissue culture plates at a density of 2×10^6 cells per plate, and cultured for 24 hours. The cells were obtained after washing with PBS (pH 7.4), lysed in a cell lysis solution (50 mM Tris, pH 7.2, 150 mM NaCl, 1% Triton X-100, 200 ng/mL phenylmethylsulfonyl fluoride) containing phosphatase inhibitor cocktail (St. Louis, Mo., USA), and 10 μL of phosphine-PEG-biotin (Waltham, Mass., Thermofisher Scientific) per 100 μL of the lysate was reacted at room temperature for 12 hours. Then, after subjecting the resultant to electrophoresis on 10% SDS polyacrylamide gel to be transferred to Immobilon P membrane (Millipore Corporation, Billerica, Mass., USA), treated with 1,000:1 diluted HRP-streptavidin (Waltham, Mass., Thermofisher Scientific) at room temperature for 2 hours, and confirmed by developing on Pierce™ECL Western blotting substrate (Waltham, Mass., Thermofisher Scientific).

HT29-MTX-e12 cells [3] = experiment: Binding of DBCO-Bac. to azide-introduced goblet cell-like cells (fluorescence images, flow cytometry); format: cell-based; settings: for binding ability to DBCO-Bac. increase compared to the control group: cells treated with 100 μM precursor; for green fluorescence (distribution of DBCO-Bac. in the culture dish) compared to the control group: low-magnification fluorescence imaging
Source text: as §1
When DBCO-Bac. is treated on goblet cell-like cells into which an azide group has been introduced in Experimental Example 3, red fluorescence representing an azide group and green fluorescence representing DBCO-Bac. appear clearly as shown in FIG. 5A.

HT29-MTX-e12 cells [4] = experiment: Binding of DBCO-Bac. in 3-dimensional intestinal mucosal simulation model; format: cell-based; settings: 100 μM precursor; 3D fluorescence image
Experimental: To evaluate the binding ability of DBCO-Bac. to the mucosa in a three-dimensional environment, mucosal formation of HT29-MTX-e12 cells was promoted through N-[N-(3,5-difluorophenacetyl)-L-alanyl]-S-phenylglycine t-butyl ester (DAPT) stimulation, and a 3D intestinal mucosal simulation model was prepared using the same. HT29-MTX-e12 cells were inoculated in DMEM medium and cultured for 24 hours, treated with 20 μM DAPT 4 times at intervals of once every 2 days, and from the second DAPT treatment, treated with the culture medium containing 100 μM GalNAz or ManNAz three times at intervals of once every two days. Then, the resultant was treated with DBCO-Bac. at a concentration of 5×10^8/mL.
Additionally, in order to evaluate the binding ability of DBCO-Bac. to the intestinal mucosa in a three-dimensional environment, a three-dimensional intestinal mucosal simulation model was prepared using HT29-MTX-e12 cells in which mucosal formation was promoted through DAPT stimulation by the method of Example 4 above.

mouse intestinal mucosa [5] = experiment: Azide group expression in mouse intestinal mucosa after oral administration (DBCO-Cy5.5 staining); format: in vivo, mice; settings: 5 mg per animal, duodenum, jejunum, ileum, colon
Experimental: To confirm the expression level and expression time of an azide group in the intestinal mucosa, GalNAz or ManNAz was orally administered to mice, and the expression level of an azide group in the intestinal mucosa was evaluated through the binding ability with DBCO-Cy5.5. 5 mg of GalNAz or ManNAz was orally administered per animal, the intestinal tissue was divided into 4 parts (duodenum, jejunum, ileum, and colon) of the small intestine and extracted after 12 hours, 24 hours, 36 hours, and 48 hours at intervals of 12 hours, and dipped in 20 μM of each DBCO-Cy5.5 solution and stained.
In the case of introducing an azide group into the mouse intestinal mucosa, after oral administration of GalNAz or ManNAz to mice by the method of Example 5 above, the expression level of an azide group in the intestinal mucosa was evaluated through the binding ability with DBCO-Cy5.5.

mouse intestinal mucosa [6] = experiment: Bac. remaining in mouse intestinal mucosa after simultaneous treatment with two DBCO-modified bacterial groups; format: in vivo, mice; settings: oral precursor, simultaneous treatment with both DBCO-modified bacteria
Experimental: In addition, in order to evaluate the intestinal mucosal binding ability of DBCO-Bac., GalNAz or ManNAz per animal was orally administered to 5 mg mice, and 24 hours thereafter, DBCO-Bac. was administered at a concentration of 10^9/mL.
In order to confirm whether bioorthogonal click chemistry of DBCO and an azide group is applicable when several groups of bacteria were administered at once as in probiotics, GalNAz and ManNAz were each orally administered to mice by the method of Example 5, and simultaneously treated with Bifidobacterium longum modified with DBCO and Lactobacillus acidophilus modified with DBCO, and the fluorescence value of Bac. remaining in the intestinal mucosa was confirmed.

Row | Molecule | red fluorescence (azide group) in HT29-MTX-e12 cells (HT29-MTX-e12 cells [1]) | generation of an azide group (HT29-MTX-e12 cells [2]) | binding ability to DBCO-Bac. increase compared to the control group (HT29-MTX-e12 cells [3]) | green fluorescence (distribution of DBCO-Bac. in the culture dish) compared to the control group (HT29-MTX-e12 cells [3]) | green fluorescence (binding ability to DBCO-Bac.) compared to the control group (HT29-MTX-e12 cells [4]) | time after oral administration at which fluorescence intensity (azide expression) was strongest (mouse intestinal mucosa [5]) | amounts of DBCO-modified Bifidobacterium longum and Lactobacillus acidophilus remaining in the intestinal mucosa compared to the control group (mouse intestinal mucosa [6])
1 | tetraacetylated N-azidoacetyl-D-mannosamine [ManNAz] | red fluorescence appeared | increased depending on the concentration | about 500 times | increased | increased significantly | about 24 hours | significantly higher
2 | CC(=O)OCC1OC(OC(C)=O)C(NC(=O)CN=[N+]=[N-])[C@@H](OC(C)=O)[C@H]1OC(C)=O (stereo partly drawn) [GalNAz, tetraacetylated N-azidoacetyl-D-galactosamine] | red fluorescence appeared | increased depending on the concentration | about 400 times | increased | increased significantly | about 24 hours | higher
